Tested on: HIV-1 LAI
Experiment: microbe, parasite or virus in culture
Details: for EC50: Human immunodeficiency virus 1, MT2, 120 h; for Combination Indices at % HIV Inhibition (Confidence Interval) 50%: 50% HIV inhibition; for Combination Indices at % HIV Inhibition (Confidence Interval) 50% / Combination Indices at % HIV Inhibition (Confidence Interval) 75% / Combination Indices at % HIV Inhibition (Confidence Interval) 90%: 95% CI in parenthesis; for Combination Indices at % HIV Inhibition (Confidence Interval) 75%: 75% HIV inhibition; for Combination Indices at % HIV Inhibition (Confidence Interval) 90%: 90% HIV inhibition; for Overall Result: two-drug combination with Compound 1, all ratios and effect levels, MT-2/HIV-1 LAI, RT assay
Procedure: Virus and cell lines. The T-cell lines, MT-2 and PM-1 were obtained through the AIDS Research and Reference Reagent Program, NIAID, and were contributed by Dr. D. Richman and Dr. R. Gallo, respectively. Both cell lines were cultured in RPMI 1640 medium supplemented with 10% fetal bovine serum, 2 mM L-glutamine and sub-cultured twice a week. The LAI strain of HIV-1 was obtained from the Fred Hutchinson Cancer Research Center, and the Bal strain was from NIH. Both virus stocks were amplified and titered in MT-2 cells (LAI) and PM-1 cells (Bal) using a virus infectivity assay.
Drug Susceptibility and Cytotoxicity Assays. For drug susceptibility assays, MT-2 cells were infected with HIV-1 LAI (or PM-1 cells with HIV-1 Bal) at an MOI of 0.005, and seeded into 96-well microtiter plates (0.1×10^6 cells/ml) containing serial dilutions of test compounds. […] Each drug ratio consisted of an array of 3-fold serial dilutions, and was performed in quadruplicate. The plates were incubated at 37° C./5% CO2. The MT-2 cells infected with HIV-1 LAI were incubated for 5 days. On day-five post-infection, 20 μl from each well was harvested and quantitated by a reverse transcriptase (RT) assay, or in samples involving non-nucleoside RT inhibitors, an MTS assay. The PM-1 cells infected with HIV-1 Bal and used for studying the combinations with CCR5 inhibitors were incubated for six days. On day-six post-infection, 20 μl from each well was harvested, 20- and 50-fold diluted and quantitated by p24 assay. Cytotoxicity assays were performed using uninfected cells, exposed to the same drug combinations, and incubated for six days. Cell viability was determined by an XTT assay. The CC50 values were calculated by using the exponential form of the median effect equation as mentioned below for calculation of EC50.
Analysis of Drug Combination Effects. For determination of CI values, drugs were diluted in a fixed ratio and multiple ratios were analyzed. The drug serial dilutions spanned a range of concentrations near the EC50 value of each compound, so that equivalent antiviral activities could be compared. Concentration-response curves were estimated for each individual drug and every combination using the median-effect equation. The equation was fit using a nonlinear regression routine (Proc Nlin) in PC SAS version 8.01 (SAS Institute Inc., SAS Version 8.01, Cary, N.C.: SAS Institute Inc., 1990).
In this equation, Fa stands for “fraction affected,” and represents the fraction of the viral load that has been inactivated. […] ED50 is drug concentration that is expected to reduce the amount of virus by 50%, and m is a parameter that reflects the slope of the concentration-response curve.
To assess antiviral effects of different drug combination treatments, combination indices (CIs) were calculated according to Chou and Rideout. The combination index was computed as CI=[D]1/[Dm]1+[D]2/[Dm]2
In this equation [Dm]1 and [Dm]2 are the concentrations of drugs that would individually produce a specific level of effect, while [D]1 and [D]2 are the concentrations of drugs in combination that would produce the same level of effect.
Theoretically, additivity is implied if the CI is equal to one, synergy if the CI is less than one, and antagonism if the CI is greater than one. […] At best, we can construct a range that contains the likely values for the CI, given the noise in the data. In this report, these ranges are reported in parentheses next to each point estimate of the CI. […] If the range fell entirely above 1.0, we would infer antagonistic behavior. If the range were to include 1.0, we would infer additivity.
In carrying out the combination experiments below, the EC50 for Compound 1 and each comparator compound was determined during the course of each study, and used in the subsequent data analysis.

[1] = combination with Compound 1, EC50 ratio 1:1 (Compound 1:comparator)
[2] = combination with Compound 1, EC50 ratio 1:1
[3] = combination with Compound 1, EC50 ratio 1:2.5
[4] = combination with Compound 1, EC50 ratio 2.5:1

O=c1[nH]cnc2c1ncn2[C@H]1CC[C@@H](CO)O1 [Didanosine, didanosine]
EC50: 1.8 µM
Combination Indices at % HIV Inhibition (Confidence Interval) 50% [1]: 1.29 (1.18, 1.40)
Combination Indices at % HIV Inhibition (Confidence Interval) 75% [2]: 0.69 (0.60, 0.78)
Combination Indices at % HIV Inhibition (Confidence Interval) 90% [2]: 0.37 (0.29, 0.44)
Combination Indices at % HIV Inhibition (Confidence Interval) 50% [3]: 0.53 (0.46, 0.60)
Combination Indices at % HIV Inhibition (Confidence Interval) 75% [3]: 0.32 (0.26, 0.38)
Combination Indices at % HIV Inhibition (Confidence Interval) 90% [3]: 0.19 (0.13, 0.25)
Combination Indices at % HIV Inhibition (Confidence Interval) 50% [4]: 0.95 (0.74, 1.17)
Combination Indices at % HIV Inhibition (Confidence Interval) 75% [4]: 0.69 (0.48, 0.90)
Combination Indices at % HIV Inhibition (Confidence Interval) 90% [4]: 0.50 (0.26, 0.74)

Nc1nc(=O)n([C@@H]2CS[C@H](CO)O2)cc1F [Emtricitabine, emtricitabine]
EC50: 0.034 µM
Combination Indices at % HIV Inhibition (Confidence Interval) 50% [1]: 0.57 (0.49, 0.64)
Combination Indices at % HIV Inhibition (Confidence Interval) 75% [2]: 0.33 (0.27, 0.39)
Combination Indices at % HIV Inhibition (Confidence Interval) 90% [2]: 0.19 (0.14, 0.24)
Combination Indices at % HIV Inhibition (Confidence Interval) 50% [3]: 0.38 (0.31, 0.45)
Combination Indices at % HIV Inhibition (Confidence Interval) 75% [3]: 0.48 (0.36, 0.60)
Combination Indices at % HIV Inhibition (Confidence Interval) 90% [3]: 0.60 (0.36, 0.84)
Combination Indices at % HIV Inhibition (Confidence Interval) 50% [4]: 0.17 (0.15, 0.19)
Combination Indices at % HIV Inhibition (Confidence Interval) 75% [4]: 0.21 (0.17, 0.25)
Combination Indices at % HIV Inhibition (Confidence Interval) 90% [4]: 0.26 (0.18, 0.34)
Overall Result: Synergistic
Overall Result (listed as emtricitabine): consistent synergy at all effective levels and concentration ratios

COc1ncc(OC)c2c(C(=O)C(=O)N3CCN(C(=O)c4ccccc4)CC3)c[nH]c12 [Compound 1, 1-benzoyl-4-[2-(4,7-dimethoxy-1H-pyrrolo[2,3-c]pyridin-3-yl)-1,2-dioxoethyl]-piperazine]
EC50: 0.001 to 0.004 µM

Cc1c(O)cccc1C(=O)N[C@@H](CSc1ccccc1)[C@H](O)CN1C[C@H]2CCCC[C@H]2C[C@H]1C(=O)NC(C)(C)C [Nelfinavir, nelfinavir]
EC50: 0.022 µM
Combination Indices at % HIV Inhibition (Confidence Interval) 50% [1]: 0.66 (0.60, 0.73)
Combination Indices at % HIV Inhibition (Confidence Interval) 75% [2]: 0.78 (0.67, 0.88)
Combination Indices at % HIV Inhibition (Confidence Interval) 90% [2]: 0.91 (0.71, 1.10)
Combination Indices at % HIV Inhibition (Confidence Interval) 50% [3]: 0.29 (0.31, 0.46)
Combination Indices at % HIV Inhibition (Confidence Interval) 75% [3]: 0.62 (0.45, 0.79)
Combination Indices at % HIV Inhibition (Confidence Interval) 90% [3]: 0.99 (0.57, 1.41)
Combination Indices at % HIV Inhibition (Confidence Interval) 50% [4]: 0.77 (0.69, 0.86)
Combination Indices at % HIV Inhibition (Confidence Interval) 75% [4]: 0.69 (0.62, 0.77)
Combination Indices at % HIV Inhibition (Confidence Interval) 90% [4]: 0.62 (0.49, 0.75)
Overall Result: Moderate
Overall Result (listed as nelfinavir): moderate synergy

Nc1ccn([C@H]2CC[C@@H](CO)O2)c(=O)n1 [Zalcitabine, zalcitabine]
EC50: 0.11 µM
Combination Indices at % HIV Inhibition (Confidence Interval) 50% [1]: 0.55 (0.41, 0.70)
Combination Indices at % HIV Inhibition (Confidence Interval) 75% [2]: 0.57 (0.36, 0.77)
Combination Indices at % HIV Inhibition (Confidence Interval) 90% [2]: 0.59 (0.25, 0.92)
Combination Indices at % HIV Inhibition (Confidence Interval) 50% [3]: 0.87 (0.65, 1.08)
Combination Indices at % HIV Inhibition (Confidence Interval) 75% [3]: 0.66 (0.44, 0.89)
Combination Indices at % HIV Inhibition (Confidence Interval) 90% [3]: 0.51 (0.24, 0.78)
Combination Indices at % HIV Inhibition (Confidence Interval) 50% [4]: 0.68 (0.48, 0.89)
Combination Indices at % HIV Inhibition (Confidence Interval) 75% [4]: 0.64 (0.37, 0.90)
Combination Indices at % HIV Inhibition (Confidence Interval) 90% [4]: 0.59 (0.20, 0.98)
Overall Result: Synergistic
Overall Result (listed as zalcitabine): consistent synergy at all effective levels and concentration ratios

COC(=O)N[C@H](C(=O)N[C@@H](Cc1ccccc1)[C@@H](O)CN(Cc1ccc(-c2ccccn2)cc1)NC(=O)[C@@H](NC(=O)OC)C(C)(C)C)C(C)(C)C [Atazanavir, atazanavir]
EC50: 0.001 µM
Combination Indices at % HIV Inhibition (Confidence Interval) 50% [1]: 1.04 (0.60, 1.49)
Combination Indices at % HIV Inhibition (Confidence Interval) 75% [2]: 0.58 (0.24, 0.93)
Combination Indices at % HIV Inhibition (Confidence Interval) 90% [2]: 0.33 (0.02, 0.64)
Combination Indices at % HIV Inhibition (Confidence Interval) 50% [3]: 0.23 (0.09, 0.38)
Combination Indices at % HIV Inhibition (Confidence Interval) 75% [3]: 0.35 (0.07, 0.63)
Combination Indices at % HIV Inhibition (Confidence Interval) 90% [3]: 0.52 (0.00, 1.24)
Combination Indices at % HIV Inhibition (Confidence Interval) 50% [4]: 0.88 (0.49, 1.27)
Combination Indices at % HIV Inhibition (Confidence Interval) 75% [4]: 0.67 (0.26, 1.09)
Combination Indices at % HIV Inhibition (Confidence Interval) 90% [4]: 0.52 (0.01, 1.04)
Overall Result: Additive-
Overall Result (listed as atazanavir): additive to synergistic

Nc1ccn([C@@H]2CS[C@H](CO)O2)c(=O)n1 [Lamivudine, lamivudine]
EC50: 0.14 µM
Combination Indices at % HIV Inhibition (Confidence Interval) 50% [1]: 1.02 (0.80, 1.23)
Combination Indices at % HIV Inhibition (Confidence Interval) 75% [2]: 0.59 (0.42, 0.76)
Combination Indices at % HIV Inhibition (Confidence Interval) 90% [2]: 0.37 (0.21, 0.53)
Combination Indices at % HIV Inhibition (Confidence Interval) 50% [3]: 0.89 (0.76, 1.02)
Combination Indices at % HIV Inhibition (Confidence Interval) 75% [3]: 0.41 (0.34, 0.47)
Combination Indices at % HIV Inhibition (Confidence Interval) 90% [3]: 0.20 (0.15, 0.24)
Combination Indices at % HIV Inhibition (Confidence Interval) 50% [4]: 1.07 (0.95, 1.20)
Combination Indices at % HIV Inhibition (Confidence Interval) 75% [4]: 0.71 (0.58, 0.83)
Combination Indices at % HIV Inhibition (Confidence Interval) 90% [4]: 0.50 (0.36, 0.65)

c1cc(CN2CCCNCCNCCCNCC2)ccc1CN1CCCNCCNCCCNCC1 [AMD-3100]
EC50: 0.008 µM
Combination Indices at % HIV Inhibition (Confidence Interval) 50% [1]: 0.40 (0.34, 0.46)
Combination Indices at % HIV Inhibition (Confidence Interval) 75% [2]: 0.27 (0.21, 0.33)
Combination Indices at % HIV Inhibition (Confidence Interval) 90% [2]: 0.18 (0.12, 0.24)
Combination Indices at % HIV Inhibition (Confidence Interval) 50% [3]: 0.25 (0.21, 0.29)
Combination Indices at % HIV Inhibition (Confidence Interval) 75% [3]: 0.14 (0.11, 0.17)
Combination Indices at % HIV Inhibition (Confidence Interval) 90% [3]: 0.08 (0.05, 0.10)
Combination Indices at % HIV Inhibition (Confidence Interval) 50% [4]: 0.15 (0.11, 0.20)
Combination Indices at % HIV Inhibition (Confidence Interval) 75% [4]: 0.28 (0.18, 0.38)
Combination Indices at % HIV Inhibition (Confidence Interval) 90% [4]: 0.51 (0.20, 0.83)

Cc1cccc(C)c1OCC(=O)N[C@@H](Cc1ccccc1)[C@@H](O)C[C@H](Cc1ccccc1)NC(=O)[C@H](C(C)C)N1CCCNC1=O [Lopinavir, lopinavir]
EC50: 0.001 µM
Combination Indices at % HIV Inhibition (Confidence Interval) 50% [1]: 0.23 (0.16, 0.42)
Combination Indices at % HIV Inhibition (Confidence Interval) 75% [2]: 0.22 (0.14, 0.30)
Combination Indices at % HIV Inhibition (Confidence Interval) 90% [2]: 0.26 (0.09, 0.44)
Combination Indices at % HIV Inhibition (Confidence Interval) 50% [3]: 0.13 (0.08, 0.18)
Combination Indices at % HIV Inhibition (Confidence Interval) 75% [3]: 0.06 (0.05, 0.08)
Combination Indices at % HIV Inhibition (Confidence Interval) 90% [3]: 0.03 (0.02, 0.05)
Combination Indices at % HIV Inhibition (Confidence Interval) 50% [4]: 1.13 (0.73, 1.52)
Combination Indices at % HIV Inhibition (Confidence Interval) 75% [4]: 0.50 (0.26, 0.74)
Combination Indices at % HIV Inhibition (Confidence Interval) 90% [4]: 0.30 (0.07, 0.52)
Overall Result: Synergistic
Overall Result (listed as lopinavir): strong synergistic effects

Reference: patent US20050215543A1, “Methods of treating HIV infection” (priority 2004, published 2005)
